Experiment: in vitro
Settings: human, hela cells, % viability

Structure (SMILES)	viability at 28.5 h, 10 µM [%]
O=C(O)COCCn1cc(-c2ccc(Cl)cc2)cn1 [CBK021914]	84.5
CC(C)(C)c1csc(N2CCSCC2)n1 [CBK021950]	119
Oc1ccccc1-c1ccnc(SC(F)F)n1 [CBK021971]	81.8
C/C(=N\N=C1\N=C(O)C(CC(=O)O)S1)c1ccco1 (stereo not shown) [CBK021973]	96.8
Cc1ccc2nc(NC(=O)C(C)(C)C)nc(O)c2c1 [CBK021975]	97.7
COc1cc(NC(=S)P(=O)(c2ccccc2)c2ccccc2)c(OC)cc1Cl [CBK021976]	95.6
Cc1nc2ccccc2n1C(F)(F)C(F)F [CBK022023]	116
Oc1cc(Cl)c(-c2ccccc2)nn1 [CBK022028]	88.4
C/N=C1/c2cn3ccccc3c2CCN1C [CBK022058]	116
O=C(c1ccno1)n1nccc1-c1cc(-c2ccccc2)no1 [CBK022074]	101
Cc1nnc(SCC(=O)Nc2nnc(C(C)C)s2)[nH]c1=O [CBK022107]	87
COc1cccc(-n2cnc3cccc(N)c32)c1 [CBK022114]	94.9
COc1ccc2cc([C@@H](O)C[C@@H](C)O)c(Cl)nc2c1 [CBK022146]	104
CC1(C)C2C(=O)C(c3ccccn3)=C(N)N2C(C)(C)C1(C)C (stereo not shown) [CBK022153]	110
Cn1ccc(C2=C(N)C(C#N)C3=C(CC(C)(C)CC3=O)O2)c1 (stereo not shown) [CBK022168]	109
COc1ccc2c(-c3cc(N)sn3)c(C)oc2c1 [CBK022260]	83.8
Cc1cc(C)nc(N2CCN(C(=O)CCC(=O)NCc3cccc(C(F)(F)F)c3)CC2)n1 [CBK022261]	107
O=C(NC1CCCCC1)c1s/c(=N/O)nnc1Nc1ccccc1 [CBK022275]	93.8
CCN(CC)C(=O)c1c(F)ccc(F)c1C(=O)O [CBK022303]	85
O=C1C2C=NNC2C(=O)N1c1ccccc1 (stereo not shown) [CBK022326]	103
COCc1cc(O)nc(Cc2c(Cl)cccc2Cl)n1 [CBK022389]	96.7
O=C(c1ccc(Br)o1)n1cc(C(F)(F)F)ccc1=O [CBK022391]	108
Nc1nc2sc3c(c2cc1C(=O)N1CCOCC1)CCCC3 [CBK022399]	96.1
COc1ccc(S(=O)(=O)N(C)c2ccc(N3CCNCC3)c3ccccc23)cc1 [CBK022404C]	94.9
CC1(C)CC(=O)C2=C(C1)CC1(C)CC(C)(C)CC2(Nc2ccccn2)C1 (stereo not shown) [CBK022425]	121

Structure (SMILES)	viability at 28.5 h, 10 µM [%]
Cc1ccccc1N1C(=O)c2ccc(Br)cc2C1=O [CBK022430]	90.9
Cc1cc(NS(=O)(=O)c2cccc(Cl)c2C)on1 [CBK022499]	92
c1cc(OCc2cccs2)cc(N2CCNCC2)c1 [CBK022557F]	89.3
c1cc(COc2ccc(N3CCNCC3)nn2)co1 [CBK022562]	95.7
CS(=O)(=O)N1CC2(CCN(C(=O)[C@@H](N)COCc3ccccc3)CC2)c2ccccc21 [CBK022597C]	104
O=C1OCc2ccc3c(c21)COCO3 [CBK022696]	107
CC(=O)NC(Cc1c[nH]c2ccccc12)/C(C)=N/O (stereo not shown) [CBK022711]	120
Cc1ccc(S(=O)(=O)Nc2nnc(C3CCCCC3)s2)cc1 [CBK022722]	101
CC1=CC(C)C(=S)NC(C)=C1 (stereo not shown) [CBK022735]	91
CC1=Nc2ccc(Cl)cc2C(C)(C)O1 [CBK022763C]	107
Nc1ccccc1NC(=O)NC(=O)c1ccccc1 [CBK022767]	94
Cc1cc(C(=O)O)c(C)cc1N [CBK022781]	95.5
C/N=c1\cccccc1NC [CBK022788]	110
CCN(CC)CCC(C(=O)c1ccccc1)S(C)(=O)=O (stereo not shown) [CBK022802]	88.8
NC(=S)c1ccc2c(c1)OCO2 [CBK022803]	86.3
COc1ccc2c(c1)CCC1(C)C2=C(C(=O)O)CC1O (stereo not shown) [CBK022814]	103
COc1ccc(S(=O)(=O)NC(=O)NCC2CC3C=CC2C3)cc1 (stereo not shown) [CBK022821]	88.7
OCC1CCC(O)C(CO)N1 (stereo not shown) [CBK022827C]	86.5
CCCCNC(=O)OC1CCN(CCc2ccccc2)CC1 [CBK022839C]	89.2
CCCCSc1nnc(NS(=O)(=O)c2ccc(NC(C)=O)cc2)s1 [CBK022853]	98.5
CN(C)CCCOC(=O)CN1c2ccccc2CCc2ccccc21 [CBK022863C]	97
O=C(O)c1ccc(S(=O)(=O)c2ccc(C(=O)O)c(C(=O)O)c2)cc1C(=O)O [CBK022872]	93.1
CN1c2ccccc2C(c2ccccc2)=NS1(=O)=O [CBK022873]	92.1
Cc1noc(N)c1C1OC(=O)c2ccccc21 (stereo not shown) [CBK022932]	104
COc1ccc(-c2cc[nH]n2)c(OC)c1OC [CBK022957C]	82

Structure (SMILES)	viability at 28.5 h, 10 µM [%]
CCCCNC(=O)NS(N)(=O)=O [CBK022990]	109
CC1=NS(=O)(=O)NC2=C1CCCC2 [CBK022998]	96.6
CCN(CC)CCN1C(=O)CCC2(c3ccccc3)CCC(=O)C=C12 (stereo not shown) [CBK023010C]	105
C/C(=N\NC(=N)N)C(F)(F)F [CBK023019G]	90.1
Cc1cc(-c2ccccc2)nn(CCN2CCOCC2)c1=O [CBK023022C]	88
O=C1CN(Cc2ccc(Cl)cc2)CCO1 [CBK023036C]	88.7
O=C1c2ccc(S(=O)(=O)c3ccc4c(c3)C(=O)N(CCO)C4=O)cc2C(=O)N1CCO [CBK023065]	112
CCOC1=NCCN2CCc3cccc1c32 [CBK023113]	117
CCOC(=O)CC(O)(c1ccc(OC)cc1)c1cc(C)no1 (stereo not shown) [CBK023133]	107
COc1cccc(CCNC(=O)CCN2C(=O)CCC2=O)c1 [CBK023150]	91.8
C#CCn1c(=O)n(C)n(C)c1=O [CBK023151]	89.4
CSc1nc(Cl)c(-c2ccccc2)c(N(C)C)n1 [CBK023169]	96.9
CC1CCCCN1CC(=O)N(C)C(C)COc1ccc(Cl)cc1 (stereo not shown) [CBK023201]	87.8
CNCCOc1ccccc1O [CBK023215C]	99.8
CO/C(=N\S(=O)(=O)c1ccccc1)c1ccccc1 [CBK023221]	89.4
CCCN(CCC)C(=O)c1nc(C)c(C(=O)N(CCC)CCC)nc1C [CBK023232]	89.2
CCN(CC)CCN(C(=O)N1CCCC1)c1c(C)cccc1C [CBK023237C]	98.7
O=C(CCCN[C@H]1CC[C@](O)(c2ccc(F)cc2)CC1)c1ccc(F)cc1 [CBK023258C]	90.7
O=C(N/N=C\c1c(F)cccc1Cl)c1ccncc1 [CBK023263]	84.7
CCC1(c2ccccc2)OCC(C2CCCCN2)O1 (stereo not shown) [CBK023284C]	85.7
Cc1ccc(S(=O)(=O)N2CC(=O)NC2=S)cc1 [CBK023293]	94.5
Cc1cc(=O)c(C#N)c(C)[nH]1 [CBK023326]	92.4
CC(=O)CCc1cc(CCC(N)=O)on1 [CBK023350]	90.3
CN(C)CCN1C(=O)CCc2ccccc21 [CBK023390C]	102
CN(C)C(=O)C1(c2ccccc2)CCNC1 (stereo not shown) [CBK023394C]	114

Structure (SMILES)	viability at 28.5 h, 10 µM [%]
CC1(C)Cc2ccccc2C(NCCC(=O)O)=N1 [CBK023412]	97.9
Cc1ccc(S(=O)(=O)NCCC(=O)NO)cc1 [CBK023472]	110
CCCC1SCC(=O)N1c1nncs1 (stereo not shown) [CBK023497]	95.4
S=C(Cc1csc2ccccc12)NC1CCCCC1 [CBK023515]	88.7
Cc1csc2ncnc(N3CCN(C(=O)C4CC4)CC3)c12 [CBK023593]	112
N#Cc1nccnc1S(=O)(=O)CCO [CBK023595]	90.1
CC(=O)N1N=C(c2cccnc2)OC1(C)C [CBK023619]	90.4
NC(=O)c1sc2nc(-c3cccnc3)ccc2c1N [CBK023645]	66
CCOC(=O)c1cnn2c(N)c(C(N)=O)nnc12 [CBK023694]	98.2
CC(C)/C=N/N=C1\NC(=O)CS1 [CBK023706]	90.7
COC(=O)c1ccccc1OCCc1csc(NS(=O)(=O)c2cccc(Cl)c2C)n1 [CBK023735]	116
O=C1CCCN1CC#CCN1CCN(Cc2ccccc2)CC1 [CBK023770C]	96.2
CCN(CC)CCn1cc(C2CCCN(C)CC2)c2ccccc21 (stereo not shown) [CBK023788B]	91.1
O=C(O)c1cnc(NCC2CCCCCC2)[nH]c1=O [CBK023792]	88.8
CN/C(=N\C1CCCCC1)N1CCOCC1 [CBK023800G]	92.2
CCCCNC(=S)NC1CC[C@@]2(Cc3ccc(OC)c(OC)c3)CCN(C)[C@H]2C1 (stereo partly shown) [CBK023805]	81.5
CCNC(=S)N[C@@H]1CC[C@@]2(Cc3ccc(OC)c(OC)c3)CCN(C)[C@H]2C1 [CBK023811]	94.5
CN(C)CCN(C)[C@H]1CCCC[C@@H]1N(C)C(=O)Cc1ccc(Br)cc1 [CBK023819C]	93.4
COc1cc(CCN2CCCCC2)c(C(C)n2cncn2)cc1OC (stereo not shown) [CBK023837G]	90.3
CNC(=O)Nc1cccc(S(N)(=O)=O)c1 [CBK023839]	89.1
Cc1nc(NCc2ccc(C(F)(F)F)cc2)nc(N2CCOCC2)n1 [CBK023863]	91.9
CCN(CC)CCCNc1nc2ccc(O)cc2s1 [CBK023880C]	105
CC(C)(C)NCC(O)CO/N=C(/c1ccncc1)c1ccc(Br)cc1 (stereo not shown) [CBK023914G]	95.7

Same assay, conditions: human, hela cells, % viability, bulk resorufin, single well

Structure (SMILES)	viability at 28.5 h, 10 µM [%]
O=C(O)C(O)(c1ccccc1)c1cccs1 (stereo not shown) [CBK022808]	108
Cc1cc(Cl)c(OC(=O)NC2CCCCC2)cc1C [CBK022948]	90.1
